Assay results as given in PubChem BioAssay (NCI).
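How tested: cells in 96-well plates exposed to compound for 48 hours at five concentrations. GI50 = concentration required for 50% inhibition of growth. TGI is the concentration that stops growth completely.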

What was measured:
Assay in all cases: NCI-60 cell line screen, 48 h
UACC-257 melanoma = test system: UACC-257 melanoma
A498 renal = test system: A498 renal
M14 melanoma = test system: M14 melanoma
NCI-H23 lung = test system: NCI-H23 lung
COLO 205 colon = test system: COLO 205 colon
HL-60(TB) leukemia = test system: HL-60(TB) leukemia
SK-MEL-28 melanoma = test system: SK-MEL-28 melanoma
HS 578T breast = test system: HS 578T breast
MALME-3M melanoma = test system: MALME-3M melanoma
BT-549 breast = test system: BT-549 breast

SMILES | TGI (UACC-257 melanoma) [µM] | TGI (A498 renal) [µM] | TGI (M14 melanoma) [µM] | TGI (NCI-H23 lung) [µM] | TGI (COLO 205 colon) [µM] | TGI (HL-60(TB) leukemia) [µM] | TGI (SK-MEL-28 melanoma) [µM] | TGI (HS 578T breast) [µM] | TGI (MALME-3M melanoma) [µM] | TGI (BT-549 breast) [µM] | GI50 (HS 578T breast) [µM] | GI50 (UACC-257 melanoma) [µM] | GI50 (A498 renal) [µM] | GI50 (M14 melanoma) [µM] | GI50 (BT-549 breast) [µM]
CN=C(/N=c1\ssc(=NC)n1C)N(C)C | > 100 | > 100 | > 100 | > 100 | > 100 | > 100 | > 100 |  |  |  |  |  |  |  | 
CN1C(=O)C(O)C[C@@H]1c1ccccc1 (stereo partly specified) | > 100 |  | > 100 | > 100 | > 100 | > 100 | > 100 | > 100 | > 100 | > 100 |  |  |  |  | 
CCOP(=O)(O)CN1CCNCCN(CP(=O)(O)OCC)CCNCC1 | > 100 | > 100 |  |  | > 100 | > 100 | > 100 | > 100 |  | > 100 |  |  |  |  | 
COc1cc(C2C(Cl)C(=O)N2c2c(C)n(C)n(-c3ccccc3)c2=O)ccc1O (stereo unspecified) | 40.7 |  | 30.7 | 34.2 | 34.3 | 64.1 |  |  | 61.9 | 45 |  |  |  |  | 
COC[C@@H](N=Cc1ccc([N+](=O)[O-])cc1)C(C)C | > 100 |  | > 100 | > 100 |  |  | > 100 | > 100 | > 100 |  |  |  |  |  | 
O=C(Nc1ccccc1C(=O)NCc1ccccc1)/C(=C/c1ccccc1)NC(=O)c1ccccc1 | > 100 | > 100 | > 100 | > 100 | > 100 | > 100 | > 100 | > 100 |  | > 100 |  |  |  |  | 
Cn1c(=O)oc2nc(-c3ccccc3)cc(C(F)(F)F)c21 | > 100 | 55.7 | > 100 | > 100 | > 100 |  | > 100 |  |  | > 100 |  |  |  |  | 
COc1ccc(C(=O)CC(c2ccccc2)[C@H]2C(c3ccc(OC)cc3)=Nc3c(nc(SC)n(C)c3=O)NC2c2ccccc2)cc1 (stereo partly specified) | > 100 | > 100 | > 100 | > 100 | > 100 |  | > 100 | > 100 |  | > 100 |  |  |  |  | 
COc1cccc(N=N/C(=N\NC(=O)c2ccc(C)cc2)c2ccc(N(CCC#N)CCC#N)cc2C)c1 | > 100 | > 100 | > 100 | > 100 | > 100 |  | > 100 | > 100 | > 100 | > 100 |  |  |  |  | 
CCN(CC)C(=S)SS(=O)(=O)c1cccc(N)c1 | > 100 | > 100 | > 100 | > 100 | > 100 |  | > 100 | > 100 | > 100 | > 100 |  |  |  |  | 
COc1ccc(-c2oc3cc(O)cc(O)c3c(=O)c2OC)cc1 | > 100 | 66.8 | > 100 |  | > 100 | 38.4 | > 100 |  | > 100 |  |  |  |  |  | 
CCN=C1C=CC(=C(c2ccc(N(CC)CC)cc2)c2ccc(N(CC)CC)cc2)c2ccccc21 | 1.18 | 0.444 | 1.22 |  |  |  |  | 0.533 |  | 0.602 | 0.0408 | 0.077 | 0.0692 | 0.184 | 0.107
Cc1ccc(S(=O)CC(CF)OCn2cc(C)c(=O)[nH]c2=O)cc1 (stereo unspecified) |  |  | > 100 | > 100 | > 100 | > 100 | > 100 | > 100 | > 100 | > 100 |  |  |  |  | 
CC(C)=CCNc1nc(Cl)nc2nc[nH]c12 | > 100 | > 100 | > 100 | > 100 | > 100 | > 100 | > 100 | > 100 | > 100 |  |  |  |  |  | 
CCOC(=O)Nn1c(CC#N)nnc1Cc1ccccc1 | > 100 |  | > 100 | > 100 |  | > 100 | > 100 | > 100 | > 100 | > 100 |  |  |  |  | 
COc1cccc(C=O)c1[O-].[O]=[U](=[O])([OH2+])[OH2+] | > 100 | > 100 | > 100 | > 100 | > 100 |  | > 100 |  | > 100 |  |  |  |  |  | 
Cc1c(C(=O)OCc2ccccc2)[n+](=O)c2cc(Cl)c(Cl)cc2n1[O-] | 29.6 | 35.6 | 28.3 | 32.5 | 32.2 | 27.3 | 64.8 | 47.4 |  | 44.4 |  |  |  |  | 
C=CCC1C(O[Si](C)(C)C(C)(C)C)C(CO[Si](C)(C)C(C)(C)C)OC1n1ccc(=O)[nH]c1=O (stereo unspecified) | 3.37 | 3.68 | 2.96 | 2.8 | 3.13 |  | 3.05 |  |  | 3.42 |  |  |  |  | 
COc1cc(C2C3=C(COC3=O)Oc3cc4c(cc32)OCO4)cc(OC)c1O (stereo unspecified) | > 61.7 | 6.75 | > 100 | 1.81 | 0.0776 | 0.294 | 89.8 |  | 39.5 | > 100 |  |  |  |  | 
COc1ccc(OC)c(SC(CC(=O)c2ccccc2)c2ccccc2)c1 (stereo unspecified) | 30.7 |  | 31 | 33.3 | 37.3 | > 100 | 32.6 | 68.3 | 38.5 |  |  |  |  |  | 
CCOP(=O)(OCC)/C(=C/c1cccs1)CC(C)=O | > 100 | > 100 | > 100 | > 100 | > 100 |  | > 100 | > 100 | > 100 | > 100 |  |  |  |  | 
O=c1[nH]n(Cc2ccccc2)c2ccc([N+](=O)[O-])cc12 | > 100 | > 100 | > 100 | > 100 | > 100 | > 100 | > 100 | > 100 | > 100 |  |  |  |  |  | 
CC(C)/C(Cl)=N\OC(NC(=O)P(=O)(c1ccccc1)c1ccccc1)(C(F)(F)F)C(F)(F)F | 42.2 | 28.6 | 15.8 | 23.8 | 26.5 | 30.9 | 28.2 | > 100 | 20.9 |  |  |  |  |  | 
COc1cc2cc(C(=O)N3CC(COS(C)(=O)=O)c4ccc(O)cc43)[nH]c2c(OC)c1OC (stereo unspecified) | 0.00404 |  |  | 0.00286 | 0.00194 |  |  | 0.000872 |  |  |  |  |  |  | 
